Patent US20210002231A1 (Centre National de la Recherche Scientifique, priority 2018, published 2021)
Starred links: 1 amine or outer side, 2 acyl side, 3 side chain; linkers in the order of their positions; H or OH if unused. Non-standard residues stand in square brackets, D forms with d. Residues, ends and D or L forms follow the SMILES beside them. Nva(5-(4-Bn-piperidin-1-yl)) = N[C@@H](CCCN1CCC(Cc2ccccc2)CC1)C(=O)O; X1 = O=C1[C@@H](N[*:1])Cc2ccccc2CN1CCC(=O)[*:2]; Dmt = Cc1cc(O)cc(C)c1C[C@H](N)C(=O)O

Assays:
human NPFF1R = human NPFF1R (Homo sapiens, UniProt Q9GZQ6); assay: Radioligand competition binding with [125I]-1-DMe-NPFF; design: expressed in transfected cells; HEK293-Glo20F cells (cAMP)
NPFF2R [1] = biological target: T1, NPFF2R (Homo sapiens, UniProt Q9Y5X5); assay: as above; design: expressed in transfected cells; HEK293-Glo20F cells (cAMP)
human MOPr [2] = biological target: T2, human MOPr (Homo sapiens, UniProt P35372); assay: cell-based; format: cell-based; design: expressed in transfected cells; HEK293-Glo20F cells (cAMP); details: for EC50: Table 3B, read-out: MOPr (cAMP) EC50; for Emax: read-out: MOPr (cAMP) Emax
Procedure, shortened: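 GTPγS binding used membranes of CHO cells expressing NPFF1R or NPFF2R, stimulated by RF-amide peptides or test compounds. cAMP was measured in HEK293 cells stably carrying Glosensor-20F, with or without stable expression of an opioid receptor or NPFF1R, in the presence of 1 mM D-luciferin.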

NPFF2R [3] = biological target: T1, NPFF2R; assay: Glo-sensor cAMP assay, agonist and antagonist mode; format: cell-based; design: expressed in transfected cells; HEK293-Glo20F cells (cAMP); details: evaluated at 0.5 and 5 μM
human MOPr [4] = biological target: T2, human MOPr; assay: BRET1 β-arrestin-2 recruitment assay; format: cell-based; design: expressed in transfected cells; host or cells: HEK293 cells stably expressing eYFP-β-arrestin-2, transiently transfected with the Rluc8-MOP plasmid; details: for EC50: Table 3B, — = non-detectable recruitment, read-out: MOPr (β-arrestin-2) EC50; for Emax: read-out: MOPr (β-arrestin-2) Emax;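 for MOPr (β-arrestin-2) Emax: Emax relative to maximal DAMGO-induced BRET as 100%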
Procedure, shortened: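 HEK293 cells stably expressing eYFP-β-arrestin-2 were transfected two days before with Rluc8-tagged MOP receptor. BRET was read at 37 °C with 5 μM coelenterazine H, 5 min after agonist addition.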
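Throughout, for MOPr (cAMP) Emax: Emax relative to DAMGO as 100%.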

T1 sequence (Q9Y5X5 whole entry): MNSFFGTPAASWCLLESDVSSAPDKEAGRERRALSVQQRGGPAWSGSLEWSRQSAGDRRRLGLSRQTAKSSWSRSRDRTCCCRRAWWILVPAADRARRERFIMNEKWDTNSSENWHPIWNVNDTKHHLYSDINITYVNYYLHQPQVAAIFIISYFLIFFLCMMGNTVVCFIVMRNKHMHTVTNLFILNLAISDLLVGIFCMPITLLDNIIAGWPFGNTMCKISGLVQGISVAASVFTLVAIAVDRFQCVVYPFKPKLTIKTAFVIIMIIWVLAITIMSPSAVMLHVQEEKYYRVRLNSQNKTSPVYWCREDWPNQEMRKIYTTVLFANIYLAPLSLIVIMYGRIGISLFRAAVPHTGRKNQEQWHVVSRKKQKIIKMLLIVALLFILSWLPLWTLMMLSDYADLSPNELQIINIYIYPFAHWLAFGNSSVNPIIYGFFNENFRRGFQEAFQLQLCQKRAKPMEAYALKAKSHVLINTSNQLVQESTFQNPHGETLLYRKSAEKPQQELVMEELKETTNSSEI
T2 sequence (P35372 whole entry): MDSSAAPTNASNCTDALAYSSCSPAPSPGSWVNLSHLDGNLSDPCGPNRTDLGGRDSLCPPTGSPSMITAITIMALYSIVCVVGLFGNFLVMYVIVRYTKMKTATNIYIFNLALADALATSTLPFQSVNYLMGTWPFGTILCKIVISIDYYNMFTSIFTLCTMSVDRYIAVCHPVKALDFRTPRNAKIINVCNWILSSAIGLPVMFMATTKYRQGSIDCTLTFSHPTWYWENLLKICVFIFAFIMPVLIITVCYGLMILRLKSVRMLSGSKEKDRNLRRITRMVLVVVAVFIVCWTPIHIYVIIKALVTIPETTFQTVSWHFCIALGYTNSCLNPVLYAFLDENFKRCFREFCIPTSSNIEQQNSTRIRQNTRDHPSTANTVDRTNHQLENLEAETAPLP
human NPFF1R, sequence (Q9GZQ6 whole entry): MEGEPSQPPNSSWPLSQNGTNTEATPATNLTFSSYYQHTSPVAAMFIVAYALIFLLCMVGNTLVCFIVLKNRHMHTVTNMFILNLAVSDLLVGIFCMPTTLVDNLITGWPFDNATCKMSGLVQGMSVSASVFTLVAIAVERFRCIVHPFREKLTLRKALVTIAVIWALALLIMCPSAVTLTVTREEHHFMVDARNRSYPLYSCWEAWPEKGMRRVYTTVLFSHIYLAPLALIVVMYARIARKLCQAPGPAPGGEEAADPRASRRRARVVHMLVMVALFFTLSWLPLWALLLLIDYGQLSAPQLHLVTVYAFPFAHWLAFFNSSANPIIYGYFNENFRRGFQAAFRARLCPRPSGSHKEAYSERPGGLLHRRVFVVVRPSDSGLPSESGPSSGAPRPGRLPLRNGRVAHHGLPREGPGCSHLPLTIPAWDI

| SMILES | IC50 (human NPFF1R) [nM] | IC50 (NPFF2R [1]) [nM] | EC50 (human MOPr [2]) [nM] | Emax (human MOPr [2]) [%] | NPFF2R (cAMP) Agonist mode (NPFF2R [3]) | EC50 (human MOPr [4]) [nM] | Emax (human MOPr [4]) [%] |
| --- | --- | --- | --- | --- | --- | --- | --- |
| Cc1cc(O)cc(C)c1C[C@H](N)C(=O)N[C@H](CCCNC(=N)N)C(=O)N[C@H]1Cc2ccccc2CN(CCC(=O)N[C@@H](CCCN2CCC(Cc3ccccc3)CC2)C(=O)N[C@H](C(N)=O)C(C)C)C1=O [DP0001, H-Dmt-D-Arg-Aba-β-Ala-Bpa-Val-NH2] (H-[Dmt][dR][X1][Nva(5-(4-Bn-piperidin-1-yl))]V-NH2) | ~500 | < 50 | 16.9 ± 8.3 | 124 | Partial | 101 | 52 |
| CC[C@H](C)[C@H](NC(=O)[C@H](CCCN1CCC(Cc2ccccc2)CC1)NC(=O)CCN1Cc2ccccc2C[C@H](NC(=O)[C@@H](CCCNC(=N)N)NC(=O)[C@@H](N)Cc2c(C)cc(O)cc2C)C1=O)C(N)=O [DP0002, H-Dmt-D-Arg-Aba-β-Ala-Bpa-Ile-NH2] (H-[Dmt][dR][X1][Nva(5-(4-Bn-piperidin-1-yl))]I-NH2) | 50 to 500 | < 50 | 8.9 ± 2.6 | 110 | Partial | 45 | 49 |
| Cc1cc(O)cc(C)c1C[C@H](N)C(=O)N[C@H](CCCNC(=N)N)C(=O)N[C@H]1Cc2ccccc2CN(CCC(=O)N[C@@H](CCCN2CCC(Cc3ccccc3)CC2)C(=O)N[C@@H](CC(C)C)C(N)=O)C1=O [DP0003, H-Dmt-D-Arg-Aba-β-Ala-Bpa-Leu-NH2] (H-[Dmt][dR][X1][Nva(5-(4-Bn-piperidin-1-yl))]L-NH2) | 50 to 500 | < 50 | 20.1 ± 10 | 70 | Partial | 37 | 38 |
